# Measurements taken from patent US9096524B2, “Anthelmintic agents and their use” (Intervet International B.V., priority 2009, dated 2015).
# Where two headings read alike, the source gives them in different places.
# Tested on: A. galli (intestinal roundworm of chicken) larval stage 3; O. dentatum (nodular worm of swine) larval stages 3 and 4
# Assay: Activity against Ascaridia galli and Oesophagostomum dentatum larvae in vitro (minimum effective concentration)
# Type: cell-based
# [1] = in vitro, one or more of A. galli L3, O. dentatum L3, L4, threshold 1 μM, read-out: MEC (minimum effective concentration) against one or more of the tested nematodes
# [2] = read-out: MEC (minimum effective concentration) against one or more of the tested nematodes, in vitro, one or more of A. galli L3, O. dentatum L3, L4, threshold 1 μM
# [3] = read-out: MEC (minimum effective concentration) against one or more of the tested nematodes, in vitro, one or more of A. galli L3, O. dentatum L3, L4, threshold 7 μM
# [4] = read-out: MEC (minimum effective concentration) against two or more of the tested nematodes, in vitro, two or more of A. galli L3, O. dentatum L3, L4, threshold 1 μM
# [5] = in vitro, two or more of A. galli L3, O. dentatum L3, L4, threshold 1 μM, read-out: MEC (minimum effective concentration) against two or more of the tested nematodes
# [6] = in vitro, one or more of A. galli L3, O. dentatum L3, L4, threshold 7 μM, read-out: MEC (minimum effective concentration) against one or more of the tested nematodes
compound,measurement,setting,value
O=C(CCN1CCN(c2ccc(Cl)cn2)CC1)N1CC[C@@H](Nc2ccc([N+](=O)[O-])c(C(F)(F)F)c2)C1 [Example 795],minimal effective concentration,[1],< 1 µM
N#Cc1ccc(N2CCN(C(=O)COC3CCN(c4ccc([N+](=O)[O-])c(C(F)(F)F)c4)CC3)CC2)cc1 [Example 180],minimal effective concentration,[1],< 1 µM
"O=C(CCCN1CCN(c2ccc(C(F)(F)F)cc2)CC1)N1CCC(Nc2ccc([N+](=O)[O-])cn2)CC1 [Example 98, 1-[4-(5-nitro-pyridin-2-ylamino)-piperidin-1-yl]-4-[4-(4-trifluoromethyl-phenyl)-piperazin-1-yl]-butan-1-one]",minimal effective concentration,[2],< 1 µM
same,minimal effective concentration,[3],< 7 µM
same,minimal effective concentration,[4],< 1 µM
O=C(CCCN1CC2CN(c3ccc(C(F)(F)F)cc3)CC2C1)N1CCC(Nc2ccc([N+](=O)[O-])c(C(F)(F)F)c2)CC1 (stereo not shown) [Example 715],minimal effective concentration,[1],< 1 µM
same,minimal effective concentration,[5],< 1 µM
CC(C)(C)c1ccc(N2CCN(CCC(=O)N3CCC(Nc4ccc(S(=O)(=O)c5ccc(F)cc5)cc4)CC3)CC2)cc1 [Example 294],minimal effective concentration,[5],< 1 µM
O=C(CCN1CCN(c2ccc(C(F)(F)F)cc2)CC1)N1CCCN(c2ccc([N+](=O)[O-])c(C(F)(F)F)c2)CC1 [Example 997],minimal effective concentration,[6],< 7 µM
N#Cc1ccc(NC2CCN(C(=O)CCN3CCN(c4ccc(C(F)(F)F)cc4)CC3)CC2)cc1 [Example 283],minimal effective concentration,[5],< 1 µM
CC(C)(C)c1ccc(N2CCN(CCC(=O)N3CCC(Nc4ccc([N+](=O)[O-])nc4)CC3)CC2)cc1 [Example 550],minimal effective concentration,[1],< 1 µM
COc1ccc(N2CCN(CCC(=O)N3CCC(Nc4ccc([N+](=O)[O-])c(C(F)(F)F)c4)CC3)CC2)cc1OC [Example 368],minimal effective concentration,[5],< 1 µM
CC(C)(C)c1ccc(N2CCN(CCC(=O)N3CCCN(c4ccc(SC(F)(F)F)cc4)CC3)CC2)cc1 [Example 1019],minimal effective concentration,[1],< 1 µM
O=C(CCCN1CCN(c2ccc(C(F)(F)F)cc2)CC1)N1CCC(Nc2ccc(Cl)c(Cl)c2)CC1 [Example 272],minimal effective concentration,[4],< 1 µM
CC(C)(C)c1ccc(N2CCN(CCCC(=O)N3CCC(Nc4ccnc(C(F)(F)F)c4)CC3)CC2)cc1 [Example 591],minimal effective concentration,[5],< 1 µM
CCCc1ccc(C2CCN(CCC(=O)N3CCC(Oc4ccc([N+](=O)[O-])c(OC)c4)CC3)CC2)cc1 [Example 489],minimal effective concentration,[1],< 1 µM
CN(C)S(=O)(=O)c1ccc(NC2CCN(C(=O)CCCN3CCN(c4ccc(Cl)cc4)CC3)CC2)cc1C(F)(F)F [Example 349],minimal effective concentration,[6],< 7 µM
CC(C)(C)c1ccc(N2CCN(CCCC(=O)N3CCCN(c4ccc([N+](=O)[O-])c(C(F)(F)F)c4)CC3)CC2)cc1 [Example 1003],minimal effective concentration,[6],< 7 µM
Cn1nnc(-c2ccc(NC3CCN(C(=O)CCN4CCN(c5ccc(Cl)cc5)CC4)CC3)cc2)n1 [Example 445],minimal effective concentration,[1],< 1 µM
same,minimal effective concentration,[6],< 7 µM
same,minimal effective concentration,[5],< 1 µM
CC(C)COc1cc(OC2CCN(C(=O)CCN3CCN(c4ccc(Cl)cc4F)CC3)CC2)ccc1[N+](=O)[O-] [Example 519],minimal effective concentration,[6],< 7 µM
O=C(CCN1CCN(c2nnc(C(F)(F)F)s2)CC1)N1CC[C@H](Nc2ccc([N+](=O)[O-])c(C(F)(F)F)c2)C1 [Example 720],minimal effective concentration,[1],< 1 µM
N#Cc1ccc(N2CCCN(C(=O)CCCN3CCN(c4ccc(C(F)(F)F)cc4)CC3)CC2)cc1C(F)(F)F [Example 1008],minimal effective concentration,[1],< 1 µM
"O=C(CCCN1CCN(c2ccc(C(F)(F)F)cc2)CC1)N1CCC(Nc2cccc(C(F)(F)F)c2)CC1 [Example 81, 1-[4-(3-trifluoromethyl-phenylamino)-piperidin-1-yl]-4-[4-(4-trifluoromethyl-phenyl)-piperazin-1-yl]-butan-1-one]",minimal effective concentration,[2],< 1 µM
same,minimal effective concentration,[3],< 7 µM
same,minimal effective concentration,[4],< 1 µM
CS(=O)(=O)c1ccc(NC2CCN(C(=O)CCCN3CCN(c4ccc(Cl)cc4)CC3)CC2)cc1C(F)(F)F [Example 343],minimal effective concentration,[1],< 1 µM
O=C(CCCN1CC2CN(c3ccc(Cl)cc3)CC2C1)N1CCC(Nc2ccc([N+](=O)[O-])c(C(F)(F)F)c2)CC1 (stereo not shown) [Example 716],minimal effective concentration,[1],< 1 µM
same,minimal effective concentration,[5],< 1 µM
"O=C(CCCN1CCN(c2nnc(C(F)(F)F)s2)CC1)N1CCC(Nc2ccc([N+](=O)[O-])c(C(F)(F)F)c2)CC1 [Example 153, 1-[4-(4-nitro-3-trifluoromethyl-phenylamino)-piperidin-1-yl]-4-[4-(5-trifluoromethyl-1,3,4-thiadiazol-2-yl)-piperazin-1-yl]-butan-1-one]",minimal effective concentration,[2],< 1 µM
same,minimal effective concentration,[3],< 7 µM
same,minimal effective concentration,[4],< 1 µM
CC(C)(C)c1ccc(N2CCN(CCC(=O)N3CCC(Nc4ccc([N+](=O)[O-])cn4)CC3)CC2)cc1 [Example 551],minimal effective concentration,[1],< 1 µM
same,minimal effective concentration,[5],< 1 µM
N#Cc1ccc(N2CCC(NC(=O)CCCN3CCN(c4cccc(Cl)c4)CC3)CC2)cc1C(F)(F)F [Example 617],minimal effective concentration,[5],< 1 µM
"Cc1nc(NC2CCN(C(=O)CCCN3CCN(c4ccc(C(F)(F)F)cc4)CC3)CC2)ccc1[N+](=O)[O-] [Example 101, 1-[4-(6-methyl-5-nitro-pyridin-2-ylamino)-piperidin-1-yl]-4-[4-(4-trifluoromethyl-phenyl)-piperazin-1-yl]-butan-1-one]",minimal effective concentration,[2],< 1 µM
same,minimal effective concentration,[3],< 7 µM
same,minimal effective concentration,[4],< 1 µM
CS(=O)(=O)c1ccc(NC2CCN(C(=O)CCN3CCN(c4ccc(Cl)cc4)CC3)CC2)cc1C(F)(F)F [Example 341],minimal effective concentration,[1],< 1 µM
same,minimal effective concentration,[5],< 1 µM
"CC(C)(C)c1ccc(N2CCC(CCCC(=O)N3CCC(Nc4ccc([N+](=O)[O-])c(C(F)(F)F)c4)CC3)CC2)cc1 [Example 137, 4-[1-(4-tert-butyl-phenyl)-piperidin-4-yl]-1-[4-(4-nitro-3-trifluoromethyl-phenylamino)-piperidin-1-yl]-butan-1-one]",minimal effective concentration,[2],< 1 µM
same,minimal effective concentration,[3],< 7 µM
same,minimal effective concentration,[4],< 1 µM
CCOc1cc(NC2CCN(C(=O)CCN3CCN(c4ccc(OC)cc4)CC3)CC2)ccc1[N+](=O)[O-] [Example 408],minimal effective concentration,[6],< 7 µM
"O=C(CC(=O)N1CCN(c2ccc(C(F)(F)F)cc2)CC1)N1CCC(Nc2ccc([N+](=O)[O-])c(C(F)(F)F)c2)CC1 [Example 78, 1-[4-(4-nitro-3-trifluoromethyl-phenylamino)-piperidin-1-yl]-3-[4-(4-trifluoromethyl-phenyl)-piperazin-1-yl]-propane-1,3-dione]",minimal effective concentration,[2],< 1 µM
same,minimal effective concentration,[3],< 7 µM
same,minimal effective concentration,[4],< 1 µM
CCOc1cc(NC2CCN(C(=O)CCN3CCN(c4ccc(OCc5ccccc5)cc4)CC3)CC2)ccc1[N+](=O)[O-] [Example 407],minimal effective concentration,[6],< 7 µM
O=C(CCCC1CCN(c2ccc(Cl)cc2)CC1)N1CC[C@H](Nc2ccc([N+](=O)[O-])c(C(F)(F)F)c2)C1 [Example 734],minimal effective concentration,[6],< 7 µM
O=C(CCN1CCC(c2cccc(C(F)(F)F)c2)CC1)N1CCC(Nc2ccc([N+](=O)[O-])c(C(F)(F)F)c2)CC1 [Example 212],minimal effective concentration,[1],< 1 µM
CC(CN1CCN(c2ccc(Cl)cc2)CC1)C(=O)N1CC[C@@H](Nc2ccc([N+](=O)[O-])c(C(F)(F)F)c2)C1 (stereo partly shown) [Example 752],minimal effective concentration,[4],< 1 µM
"O=C(CCCN1CCN(c2ccc(C(F)(F)F)cc2)CC1)N1CCC(Nc2ccc([N+](=O)[O-])nc2)CC1 [Example 95, 1-[4-(6-nitro-pyridin-3-ylamino)-piperidin-1-yl]-4-[4-(4-trifluoromethyl-phenyl)-piperazin-1-yl]-butan-1-one]",minimal effective concentration,[2],< 1 µM
same,minimal effective concentration,[3],< 7 µM
same,minimal effective concentration,[4],< 1 µM
CCOc1cc(NC2CCN(C(=O)CCN3CCN(c4ccc(Cl)cc4)CC3)CC2)ccc1[N+](=O)[O-] [Example 405],minimal effective concentration,[6],< 7 µM
O=C(CCN1CCC(c2ccc(-c3ccccc3)cc2)CC1)N1CCC(Oc2ccc([N+](=O)[O-])c(C(F)(F)F)c2)CC1 [Example 442],minimal effective concentration,[6],< 7 µM
O=C(COC1CCN(c2ccc([N+](=O)[O-])c(C(F)(F)F)c2)CC1)N1CCN(c2ccc(Cl)cc2)CC1 [Example 179],minimal effective concentration,[1],< 1 µM
O=C(CCN1CCN(c2ccc(C(F)(F)F)cc2)CC1)NC1CCN(c2ccc([N+](=O)[O-])c(C(F)(F)F)c2)CC1 [Example 596],minimal effective concentration,[1],< 1 µM
O=C(CCCN1CCN(c2ccc(Cl)cc2)CC1)N1CC[C@@H](Nc2ccc([N+](=O)[O-])c(C(F)(F)F)c2)C1 [Example 792],minimal effective concentration,[1],< 1 µM
O=C(CCCN1CCN(c2ccc(C(F)(F)F)cc2)CC1)N1CC[C@H](Nc2ccc([N+](=O)[O-])c(C(F)(F)F)c2)C1 [Example 730],minimal effective concentration,[1],< 1 µM
same,minimal effective concentration,[5],< 1 µM
COc1ccc(C2CCN(CCC(=O)N3CCC(Oc4ccc([N+](=O)[O-])c(OC)c4)CC3)CC2)cc1 [Example 484],minimal effective concentration,[1],< 1 µM
COc1cc(OC2CCN(C(=O)CCN3CCN(c4ccc(Cl)cc4F)CC3)CC2)ccc1[N+](=O)[O-] [Example 476],minimal effective concentration,[6],< 7 µM
CN(C)S(=O)(=O)c1ccc(NC2CCN(C(=S)CCCN3CCN(c4ccc(C(F)(F)F)cc4)CC3)CC2)cc1C(F)(F)F [Example 699],minimal effective concentration,[5],< 1 µM
O=C(CCN1CCN(c2ccccc2)CC1)N1CCC(Nc2ccc([N+](=O)[O-])c(C(F)(F)F)c2)CC1 [Example 171],minimal effective concentration,[1],< 1 µM
same,minimal effective concentration,[5],< 1 µM
